Results as given in patent publication US20200216417A1, “INHIBITORS OF FIBROBLAST ACTIVATION PROTEIN” (Praxis Biotech LLC, priority 2019, published 2020).

What was measured:
[1] = molecular target: T1, FAPα (Mus musculus, UniProt P97321); test: FAPα enzymatic activity in mouse plasma (PRXS-AMC); assay type: biochemical, C57BL/6 mouse; conditions: PRXS-AMC substrate, read-out: mouse plasma FAPα (PRXS-AMC) (exo IC50)
T1 construct: from tissue; host or cells: C57BL/6 mouse plasma (EDTA)
T1 sequence (P97321 24-761 limits assumed): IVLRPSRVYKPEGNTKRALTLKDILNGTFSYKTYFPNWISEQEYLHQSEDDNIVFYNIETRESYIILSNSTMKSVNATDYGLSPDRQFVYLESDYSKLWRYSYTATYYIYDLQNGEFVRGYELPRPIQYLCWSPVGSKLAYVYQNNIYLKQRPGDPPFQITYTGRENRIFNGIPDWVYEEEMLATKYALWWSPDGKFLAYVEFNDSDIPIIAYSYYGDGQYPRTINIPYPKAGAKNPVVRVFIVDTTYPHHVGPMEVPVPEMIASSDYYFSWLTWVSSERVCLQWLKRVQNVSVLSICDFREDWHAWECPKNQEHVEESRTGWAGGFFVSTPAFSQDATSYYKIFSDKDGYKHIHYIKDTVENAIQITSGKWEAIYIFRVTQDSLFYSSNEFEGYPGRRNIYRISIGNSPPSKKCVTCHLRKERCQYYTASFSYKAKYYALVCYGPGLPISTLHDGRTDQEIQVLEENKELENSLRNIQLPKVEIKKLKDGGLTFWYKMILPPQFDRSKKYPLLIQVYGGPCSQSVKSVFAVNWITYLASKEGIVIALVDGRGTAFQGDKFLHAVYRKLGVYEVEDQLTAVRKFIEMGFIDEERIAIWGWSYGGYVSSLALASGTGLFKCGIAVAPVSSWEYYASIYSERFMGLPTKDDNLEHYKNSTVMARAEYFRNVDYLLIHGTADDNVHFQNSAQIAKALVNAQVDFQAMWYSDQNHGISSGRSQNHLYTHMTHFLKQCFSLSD
Method: Approximately 500 μL of whole blood from one C57BL/6 mouse was harvested into BD Microtainer® tubes (K2) EDTA (#365974, Becton Dickinson and Co.) via terminal cardiac puncture. The blood sample was immediately centrifuged at approximately 9000 g at 4° C. for 5 minutes. Plasma was separated and stored at −80° C. in aliquots of 300 μL. To assay baseline FAPα enzymatic exopeptidase activity, 5 μL of thawed, plasma was diluted (1:5) with cFAP buffer (100 mM Tris-HCl, 400 mM NaCl, 50 mM salicylic acid, 1 mM EDTA, pH 7.5) and mixed with 35 μL of the same buffer before being pre-incubated with different concentrations of 10 μL of test compounds or DMSO vehicle for 15 minutes at 37° C. in 96-well black plates (Nunc, #237108). After pre-incubation, 50 μL of 200 μM PRXS-AMC were added to the mixture. The assay was performed for 1 hour at 37° C. protected from light. 7-Amino-4-Methylcoumarin (AMC) release was detected measuring fluorescence at an excitation wavelength of 380 nm and an emission wavelength of 460 nm using a Multifunction Microplate Reader (Synergy 4, Biotek). All measurements were carried out at least as a single point.

[2] = molecular target: T2, recombinant human FAPα (rhFAPα) (Homo sapiens, UniProt Q12884); test: FAPα enzymatic endopeptidase (collagenase) activity assay, DQ collagen; assay type: biochemical; conditions: Table 2, read-out: rhFAPα (endo IC50)
T2 construct: purchased R&S system (so in the source)
T2 sequence (Q12884 1-760): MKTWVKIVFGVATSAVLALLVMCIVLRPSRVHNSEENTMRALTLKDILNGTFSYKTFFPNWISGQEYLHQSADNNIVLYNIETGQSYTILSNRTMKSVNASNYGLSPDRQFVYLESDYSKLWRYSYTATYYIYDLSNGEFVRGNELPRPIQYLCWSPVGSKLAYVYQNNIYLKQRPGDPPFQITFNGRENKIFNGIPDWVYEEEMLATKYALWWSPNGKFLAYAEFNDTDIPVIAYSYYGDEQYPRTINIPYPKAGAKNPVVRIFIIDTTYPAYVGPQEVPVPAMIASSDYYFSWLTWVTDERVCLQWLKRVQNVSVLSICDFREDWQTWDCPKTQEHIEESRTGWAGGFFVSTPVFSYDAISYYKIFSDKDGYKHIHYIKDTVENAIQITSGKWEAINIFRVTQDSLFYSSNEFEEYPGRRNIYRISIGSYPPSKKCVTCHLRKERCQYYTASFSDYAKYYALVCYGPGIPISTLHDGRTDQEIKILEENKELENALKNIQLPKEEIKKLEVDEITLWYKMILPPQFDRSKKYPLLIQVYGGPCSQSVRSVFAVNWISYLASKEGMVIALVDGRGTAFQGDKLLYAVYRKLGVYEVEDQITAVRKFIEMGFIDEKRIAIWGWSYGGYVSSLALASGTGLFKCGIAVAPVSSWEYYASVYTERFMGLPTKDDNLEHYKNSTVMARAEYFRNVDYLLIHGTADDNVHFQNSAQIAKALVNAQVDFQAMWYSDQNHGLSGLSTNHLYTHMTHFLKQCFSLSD

Compound | IC50 [1] | IC50 [2]
N#C[C@@H]1CC(F)(F)CN1C(=O)CNC(=O)c1ccncc1NCc1ccc(F)cc1 [Compound 2, (S)—N-(2-(2-cyano-4,4-difluoropyrrolidin-1-yl)-2-oxoethyl)-3-((4-fluorobenzyl)amino)isonicotinamide] | < 1000 nM | –
COc1ccc(C(=O)Nc2cnccc2C(=O)NCC(=O)N2CC(F)(F)C[C@H]2C#N)cc1 [Compound 3, (S)—N-(2-(2-cyano-4,4-difluoropyrrolidin-1-yl)-2-oxoethyl)-3-(4-methoxybenzamido)isonicotinamide] | < 1000 nM | < 1000 nM
N#C[C@@H]1CC(F)(F)CN1C(=O)CNC(=O)c1ccncc1NC(=O)COc1ccc(Cl)c(F)c1 [Compound 5, (S)-3-(2-(4-chloro-3-fluorophenoxy)acetamido)-N-(2-(2-cyano-4,4-difluoropyrrolidin-1-yl)-2-oxoethyl)isonicotinamide] | < 1000 nM | –
N#C[C@@H]1CC(F)(F)CN1C(=O)CNC(=O)c1ccncc1Cc1ccccc1F [Compound 7, (S)—N-(2-(2-cyano-4,4-difluoropyrrolidin-1-yl)-2-oxoethyl)-3-(2-fluorobenzyl)isonicotinamide] | < 1000 nM | –
N#C[C@@H]1CC(F)(F)CN1C(=O)CNC(=O)c1ccncc1Cc1ccc(F)cc1 [Compound 8, (S)—N-(2-(2-cyano-4,4-difluoropyrrolidin-1-yl)-2-oxoethyl)-3-(4-fluorobenzyl)isonicotinamide] | < 1000 nM | –
N#C[C@@H]1CC(F)(F)CN1C(=O)CNC(=O)c1ccncc1/C=C/c1ccc(Cl)cc1 [Compound 9, (S,E)-3-(4-chlorostyryl)-N-(2-(2-cyano-4,4-difluoropyrrolidin-1-yl)-2-oxoethyl)isonicotinamide] | < 1000 nM | < 1000 nM
